Test [1] in a line: Magnetic microrheometry: viscoelasticity (log G*) of CF sputum. The following applies: for decrease in log G* (before minus after exposure): 20 min (FIG. 4A); for log G* after treatment: 37° C., 20 minutes; for log G* after treatment / log G* before treatment: mean ± standard error; for decline in viscoelasticity (log G*): Trx (30 μM), TR (0.1 μM); for log G* before treatment: baseline, 4 samples. Also on record: species or system human. As for the experimental part: Viscoelastic change in response to treatment was measured by means of a magnetic microrheometer as developed by King (King M., Magnetic microrheometer. In: Methods in Bronchial Mucology, edited by Braga P C, and Allegra L. New York: Raven Press, 1988, p. 73-83). An 80-120 μm steel sphere was placed in a 10 mg sputum sample. An electromagnet was used to oscillate this sphere, whose image was projected onto a pair of photocells via a microscope. […] G* was the mechanical impedance or vector sum of viscosity and elasticity. For Trx and NADPH dose response experiments, log G* at 10 rad/s was measured before any treatment (baseline), and then after 20 minute incubation with no treatment, diluent (H2O), or Trx with reducing system. All treatments were administered to the sample in a volume of H2O equal to 10% of total sample volume. One measurement was performed per aliquot of sample.
Magnetic microrheometry was performed to determine the effect of Trx and its reducing system on sputum viscosity. Measurements were performed on sputum samples before and after incubation with the Trx reducing system (Table 1) to determine the change in log G* (viscoelasticity).
In the experiment shown in FIG. […] Each column represents the mean±standard error for 4 samples (♦Statistically significant from H2O diluent value). […]

Another test concerns DNA in CF sputum. Briefly: Total DNA content of sputum gel and liquid phases by Hoechst assay. The following applies: Trx (30 μM) + reducing system, 20 min, mean ± S.D., n=5 (FIG. 6). Also on record: species or system human. The protocol: 275 μl of CF sputum was incubated with no treatment, 25 μl of H2O, or 25 μl of H2O containing Trx (30 μM)+TR (0.1 μM) and NADPH (2 mM). After 20 minute incubation at 37° C., 100 μl of H2O was added to each sample, followed by centrifugation (22,000×g) for 10 minutes. Resulting gel and liquid phases were separated and incubated with an equal volume of digestion solution consisting of 100 mM Tris Cl, 5 mM EDTA, 200 mM NaCl, 0.5% Tween 20, and 1 mg/ml proteinase K for 4 hours at 50° C. DNA was purified from liquid and gel phases by phenol/chloroform extraction and resuspended in 100 μl of TE buffer, pH 8.0. DNA concentrations were determined by Hoechst assay (Labarca and Paigen, Anal Biochem 102:344-352, 1980) using an F-2000 fluorometer (Hitachi, Schaumburg, Ill.) with an excitation wavelength of […] and an emission wavelength of 555 nm. Salmon testis DNA, dissolved in TE buffer, was used to establish the standard curve.
The presence of high amounts of extracellular DNA in CF airway secretions contributes to the excessive viscoelasticity of CF sputum. To evaluate what effect Trx has on the solubility of DNA in sputum, sputum samples (275 μl) were incubated with either no additions, diluent (H2O), or Trx (30 μM)+reducing system for 20 minutes, and then separated into gel (insoluble) and liquid (soluble) phases. […]

Consider one substance from patent US9289471B2, “Product and process for liquefaction of mucus or sputum” (National Jewish Health, priority 2002, dated 2016).

Take “Trx: Lyophilized recombinant E. coli Trx from Promega; protein disulfide reductase, used with its reducing system (TR + NADPH)”: the “decrease in log G* (before minus after exposure)” value in test [1] (3 μM Trx + 0.1 μM TR + 2 mM NADPH) was found to be 0.26 log units; in test [1] (10 μM Trx + 0.1 μM TR + 2 mM NADPH), 0.39 log units; in test [1] (30 μM Trx + 0.1 μM TR + 2 mM NADPH) it was 0.65 log units. In addition, the “log G* after treatment” value in test [1] (3 μM Trx + 0.1 μM TR and 2 μM NADPH) was determined as 3.11 ± 0.04; in test [1] (10 μM Trx + 0.1 μM TR and 2 μM NADPH), 2.94 ± 0.05; in test [1] (30 μM Trx + 0.1 μM TR and 2 μM NADPH), 2.63 ± 0.04. Moreover, the sputum viscoelasticity entry in test [1] (20 minute treatment with 3, 10, or 30 μM Trx) was “significantly diminished”. Besides, the figures for the “decline in viscoelasticity (log G*)” value in test [1] (0.2 mM NADPH (FIG. 4B)), in test [1] (0.6 mM NADPH (FIG. 4B)) and in test [1] (2 mM NADPH (FIG. 4B)) were 0.16 log units, 0.26 log units and 0.39 log units, respectively. Besides, the “log G* before treatment” value came to 3.37 ± 0.06 in test [1] (aliquots for 3 μM Trx), 3.33 ± 0.06 in test [1] (aliquots for 10 μM Trx) and 3.28 ± 0.04 in test [1] (aliquots for 30 μM Trx). Besides, the “DNA content of gel (insoluble) phase” value with DNA in CF sputum stood at 0.55 ± 0.31 mg. In addition, the “DNA content of liquid (soluble) phase” value in the test with DNA in CF sputum came out at 0.57 ± 0.37 mg.
